Counter-ions that a name gives are not always drawn.
Assays:
UACC 903 melanoma cells = assay: Cell cycle analysis (propidium iodide, FACScan); type: cell-based; settings: 3.5 to 21 μM; 24 hours
Method: Cell cycle analysis is undertaken by growing 1.5×10^6 melanoma cells in 100-mm culture dishes followed by treatment with PBIT or PBISe (3.5 to 21 μM) for 24 hours. Cells are collected and stained using propidium iodide (100 μg/mL; Sigma, St Louis, Mo.), 20 μg/mL Ribonuclease A (Roche, Indianapolis, Ind.) 3 μg/mL Triton X-100 dissolved in 0.1% (W/V) sodium citrate for 30 minutes at 4° C. (Krishan, A., J Cell Biol 1975; 66:188-93). Stained cells are analyzed using the FACScan analyzer (Becton Dickinson, San Jose, Calif.) and data processed using ModFit LT software (Verity Software House, Topsham, Me.).

[1] = system: PI3 kinase signaling in Caco-2 cells; assay: Western blot analysis of Caco-2 cell lysates; type: cell-based
Method: For additional Western blot analysis, Caco-2 cell lysates are harvested by addition of lyses buffer containing 50 mM HEPES (pH 7.5), 150 mM NaCl, 10 mM EDTA, 10% glycerol, 1% Triton X-100, 1 mM sodium orthovanadate, 0.1 mM sodium molybdate, 1 mM phenylmethylsulfonyl fluoride, 20 μg/ml aprotinin, and 5 μg/ml leupeptin. Whole cell lysates are centrifuged (≦10,000×g) for 10 minutes at 4° C. to remove cell debris. Protein concentrations are quantitated using the BCA assay (Pierce; Rockford, Ill.), and 30 μg of lysate loaded per lane onto NuPAGE Gels (Life Technologies, Inc. Carlsbad, Calif.). Following electrophoresis, samples are transferred to polyvinylidene difluoride (PVDF) membrane (Pall Corporation, Pensacola, Fla.) and the blots probed with antibodies according to each supplier's recommendations: antibodies to PRAS40 and phosphorylated PRAS40 from Invitrogen (Invitrogen Corporation, Carlsbad, Calif.); antibodies to cyclin D1, p27, p21, and Erk2 from Santa Cruz Biotechnology (Santa Cruz, Calif.); and antibodies to Akt2, phosphorylated-Akt (Ser473), phosphorylated-Erk 1/2 and cleaved PARP from Cell Signaling Technology (Danvers, Mass.). Secondary antibodies conjugated with horseradish peroxidase are obtained from Santa Cruz Biotechnology (Santa Cruz, Calif.). Immunoblots are developed using the enhanced chemiluminescence (ECL) detection system (Pierce Biotechnology, Rockford, Ill.) (FIGS. 6A and 6B).

[2] = system: iNOS (total nitrate+nitrite in Caco-2 cells); assay: Nitrite estimation (nitrate/nitrite colorimetric assay); type: cell-based; settings: 2-4 μM, 72 hours
Method: Nitrite content in cell culture media is determined using a nitrate/nitrite colorimetric assay kit (Cayman Chemical Company, Ann Arbor, Mich.) essentially as described in Salvucci, O. et al., Cancer Res 2001; 61:318-26. Caco-2 cells (1×10^6) are plated in 60 mm culture dishes in advanced DMEM containing 10% heat treated FBS for 12 hours, growing cells conditioned with phenol-red free DMEM containing 0.5% FBS for an additional 12 hours. Cells are then treated with increasing concentrations of PBIT (40 and 80 μM) or PBISe (2 and 4 μM) dissolved in phenol-red free DMEM (2 ml) containing 0.5% FBS for 72 hours. Culture supernatants are collected and total nitrite (nitrate+nitrite) measured by incubating 80 μL supernatant with enzyme cofactor mixture (10 μL) and nitrate reductase (10 μL) for 2 hours. Total nitrite is measured by the addition of Griess reagent-I and II (50 μL each). A nitrate standard curve (5-35 μM) is simultaneously prepared. Total nitrite present in media alone is subtracted from all experimental values and represented as micromolar nitrite produced following each treatment.

[3] = system: PC-3 prostate adenocarcinoma cells; assay: MTS cell viability assay, PC-3; type: cell-based, human
Method: Growth inhibitory effects on cultured cells from human vertical growth phase (VGP) melanoma cell line WM115, Lung adenocarcinoma (A549), fibrosarcoma (HT-1080), prostate adenocarcinoma (PC-3), ovarian carcinoma (OVCAR-3), and breast adenocarcinoma (MDA-MB-231) are plated in 96 well plates at a density of 5×10^3 cells/well in 100 μl media. […] Dose response curves for each compound are generated and the IC50 values (μM) determined using GraphPad Prism software. Each experiment is replicated at least 3 times and the average IC50 (μM) values with standard error represented.

## N=C(N)[Se]CCc1ccc(CC[Se]C(=N)N)cc1 [PBISe, s,s′-1,4-phenylene-bis(1,2-ethanediyl)bis-isoselenourea dihydrobromide]
UACC 903 melanoma cells
  increase in G2/M cells: ~3 fold
  sub G0/G1 population: increased
[1]
  cleaved PARP: increase
  downstream pPRAS40 level: decreased
  pAkt and Akt2 levels: decreased
[2]
  total nitrate+nitrite production: reduces
[3]; Homo sapiens, 24 h, read-out: Inhibition Cancer Cells IC50, PC-3 (Table III)
  IC50: 6.6 ± 0.95 µM
[3]; ratio of IC50 PBIT/PBISe, PC-3
  Fold increase in efficacy (PBIT/PBISe), PC-3: >15.2 fold
